# Assay results as given in US20190031618A1, “BENZIMIDAZOLE DERIVATIVES USEFUL AS CB-1 INVERSE AGONISTS” (Janssen Pharmaceutica NV, priority 2015, published 2019).
# Assays:
# [1] = molecular target: Human CB2R (Cannabinoid receptor 2) (Homo sapiens, UniProt P34972); assay: CB-2 in vitro cAMP (HTRF) assay; assay type: cell-based; details: for EC50: HEK cells, cAMP HTRF, 250 nM forskolin, mean where tested more than once, read-out: CB2 HEK_cAMP EC50
# In short: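 HEK-293 cells stably expressing receptor, plated overnight at 4E5 cells/mL, tested with 1/3 serial dilutions of compound in HBSS/HEPES/BSA buffer with 0.5 mM IBMX and forskolin (diluted to 1.5 μM in buffer). cAMP measured by competitive HTRF immunoassay (d2-cAMP, cryptate anti-cAMP), signal inversely proportional to cAMP.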
# [2] = molecular target: Human CB1R (Cannabinoid receptor 1) (Homo sapiens, UniProt P21554); assay: CB-1 in vitro cAMP (HTRF) assay; assay type: cell-based; details: for EC50: HEK cells, cAMP HTRF, 250 nM forskolin, mean where tested more than once, read-out: CB1 HEK_cAMP EC50
# Sequence of Human CB1R (Cannabinoid receptor 1) (P21554 whole entry): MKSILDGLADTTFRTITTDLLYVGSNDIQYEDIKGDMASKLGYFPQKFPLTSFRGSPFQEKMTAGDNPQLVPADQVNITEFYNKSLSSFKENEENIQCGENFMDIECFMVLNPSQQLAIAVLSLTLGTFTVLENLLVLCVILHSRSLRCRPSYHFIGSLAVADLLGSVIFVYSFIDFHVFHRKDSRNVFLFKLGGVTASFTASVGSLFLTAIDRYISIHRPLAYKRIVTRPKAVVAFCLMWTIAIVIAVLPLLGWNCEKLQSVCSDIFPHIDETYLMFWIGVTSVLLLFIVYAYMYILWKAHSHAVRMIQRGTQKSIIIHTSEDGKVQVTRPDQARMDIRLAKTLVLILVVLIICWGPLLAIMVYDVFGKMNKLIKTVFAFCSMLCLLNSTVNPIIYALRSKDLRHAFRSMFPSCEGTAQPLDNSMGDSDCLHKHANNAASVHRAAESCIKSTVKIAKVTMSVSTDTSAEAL
# In short: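 Intracellular cAMP from HTRF ratio (d2-cAMP vs Eu-cryptate anti-cAMP), converted to nM via per-plate standards, in stable human CB1R HEK-293 cells.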
# Sequence of Human CB2R (Cannabinoid receptor 2) (P34972 whole entry): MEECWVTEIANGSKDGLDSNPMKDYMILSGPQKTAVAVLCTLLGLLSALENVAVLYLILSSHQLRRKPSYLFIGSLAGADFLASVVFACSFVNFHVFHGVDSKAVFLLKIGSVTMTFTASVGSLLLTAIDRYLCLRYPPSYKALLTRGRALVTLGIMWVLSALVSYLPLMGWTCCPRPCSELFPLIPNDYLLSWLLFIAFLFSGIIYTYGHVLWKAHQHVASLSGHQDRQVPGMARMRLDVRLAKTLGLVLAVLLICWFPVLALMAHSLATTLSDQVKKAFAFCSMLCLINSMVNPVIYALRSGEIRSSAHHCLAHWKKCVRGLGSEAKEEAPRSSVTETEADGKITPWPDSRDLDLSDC
SMILES,EC50 [1] [nM],EC50 [2] [nM],"IC50 ([1]; second line, the sentence announces activity against CB-1 and CB-2, read-out: CB-1 receptor: IC50 (second line of the list)) [nM]","IC50 ([2]; first line of the list, HEK-293 cells, cAMP, 250 nM Forskolin) [nM]"
O=S(=O)(N1CCC(n2c(-c3ccc(Cl)cc3)nc3ccc(C(c4ccc(Cl)cc4)c4nccs4)cc32)CC1)C(F)(F)F (stereo not shown) [Example 394],> 10000,4840,–,–
O=S(=O)(N1CCC(n2c(C3CCCC3)nc3ccc(C(c4ccc(Cl)cc4)c4nccs4)cc32)CC1)C(F)(F)F (stereo not shown) [Example 395],> 10000,137,–,–
CC(C)Cc1nc2ccc(C(c3ccc(Cl)cc3)c3nccs3)cc2n1C1CCN(S(=O)(=O)C(F)(F)F)CC1 (stereo not shown) [Example 396],91,221,–,–
CC(C)c1nc2ccc(C(c3ccc(Cl)cc3)c3nccs3)cc2n1C1CCN(S(=O)(=O)C(F)(F)F)CC1 (stereo not shown) [Example 397],> 10000,> 10000,–,–
O=S(=O)(N1CCC(n2cnc3ccc(C(c4ccc(Cl)cc4)c4nccs4)cc32)CC1)C(F)(F)F (stereo not shown) [Example 398],> 10000,21,–,–
CCCc1nc2ccc(C(c3ccc(Cl)cc3)c3nccs3)cc2n1C1CCN(S(=O)(=O)C(F)(F)F)CC1 (stereo not shown) [Example 399],> 10000,163,–,–
CC(c1ccc(Cl)cc1)n1c(C2CC2)nc2ccc(C(c3ccc(Cl)cc3)c3nccs3)cc21 (stereo not shown) [Example 401],> 10000,6020,–,–
CC(C)c1nc2ccc(C(c3ccc(Cl)cc3)c3nccs3)cc2n1-c1cccc(Cl)c1 (stereo not shown) [Example 402],> 10000,192,–,–
Clc1ccc(C(c2ccc3nc(C4CC4)n(Cc4ccccn4)c3c2)c2nccs2)cc1 (stereo not shown) [Example 403],> 10000,569,–,–
Clc1ccc(C(c2ccc3nc(C4CNC4)n(CCc4cccc(Cl)c4)c3c2)c2nccs2)cc1 (stereo not shown) [Example 404],> 10000,6150,–,–
OC(c1ccc(Cl)cc1)(c1ccc2ncn(CCc3cccc(Cl)c3)c2c1)c1nccs1 (stereo not shown) [Example 405],3350,4490,–,–
CC(C)(C)OC(=O)N1CC(c2nc3ccc(C(c4ccc(Cl)cc4)c4nccs4)cc3n2CCc2cccc(Cl)c2)C1 (stereo not shown) [Example 406],> 10000,1690,–,–
CCOC(=O)N1CCC(n2c(C(C)(C)C)nc3ccc(C(c4ccc(Cl)cc4)c4nccs4)cc32)CC1 (stereo not shown) [Example 408],> 10000,3150,–,–
CCc1nc2ccc(C(c3ccc(Cl)cc3)c3nccs3)cc2n1CCc1cccc(Cl)c1 (stereo not shown) [Example 409],> 10000,47.8,–,–
CCCc1nc2ccc(C(c3ccc(Cl)cc3)c3nccs3)cc2n1CCc1cccc(Cl)c1 (stereo not shown) [Example 410],> 10000,308,–,–
CCOC(=O)N1CCC(n2c(C3CCCO3)nc3ccc(C(c4ccc(Cl)cc4)c4nccs4)cc32)CC1 (stereo not shown) [Example 411],> 10000,376,–,–
CCOC(=O)N1CCC(n2c(C3CCOCC3)nc3ccc(C(c4ccc(Cl)cc4)c4nccs4)cc32)CC1 (stereo not shown) [Example 412],> 10000,623,–,–
CCOC(=O)c1nc2ccc(C(c3ccc(Cl)cc3)c3nccs3)cc2n1C1CCN(C(=O)OCC)CC1 (stereo not shown) [Example 413],> 10000,315,–,–
CCOC(=O)N1CCC(n2c(C3CNC3)nc3ccc(C(c4ccc(Cl)cc4)c4nccs4)cc32)CC1 (stereo not shown) [Example 414],> 10000,1490,–,–

SMILES,EC50 [1] [nM],EC50 [2] [nM],"IC50 ([1]; second line, the sentence announces activity against CB-1 and CB-2, read-out: CB-1 receptor: IC50 (second line of the list)) [nM]","IC50 ([2]; first line of the list, HEK-293 cells, cAMP, 250 nM Forskolin) [nM]"
CCOC(=O)N1CCC(n2c(C(F)(F)F)nc3ccc(C(c4ccc(Cl)cc4)c4nccs4)cc32)CC1 (stereo not shown) [Example 415],> 10000,> 10000,–,–
CCCc1nc2ccc(C(c3ccc(Cl)cc3)c3nccs3)cc2n1C1CCN(C(=O)OCC)CC1 (stereo not shown) [Example 416],> 10000,392,–,–
CCOC(=O)N1CCC(n2c(C3CN(C(=O)OC(C)(C)C)C3)nc3ccc(C(c4ccc(Cl)cc4)c4nccs4)cc32)CC1 (stereo not shown) [Example 417],> 10000,2540,–,–
CCOC(=O)N1CCC(n2c(-c3ccc(Cl)cc3)nc3ccc(C(c4ccc(Cl)cc4)c4nccs4)cc32)CC1 (stereo not shown) [Example 418],> 10000,1080,–,–
CCOC(=O)N1CCC(n2c(-c3nccs3)nc3ccc(C(c4ccc(Cl)cc4)c4nccs4)cc32)CC1 (stereo not shown) [Example 419],> 10000,1180,–,–
CCOC(=O)N1CCC(n2c(CC(C)C)nc3ccc(C(c4ccc(Cl)cc4)c4nccs4)cc32)CC1 (stereo not shown) [Example 420],> 10000,231,–,–
CCOC(=O)N1CCC(n2c(C3CC3)nc3ccc(C(c4ccc(Cl)cc4)c4nccs4)cc32)CC1 (stereo not shown) [Example 421],> 10000,112,–,–
CCOC(=O)N1CCC(n2c(Cl)nc3ccc(C(c4ccc(Cl)cc4)c4nccs4)cc32)CC1 (stereo not shown) [Example 422],> 10000,598,–,–
Clc1ccc(C(c2ccc3nc(C4CC4)n(CCc4cccc(Cl)c4)c3c2)c2nccs2)cc1 (stereo not shown) [Example 423],> 10000,17,–,–
FC(F)(F)c1nc2ccc(C(c3ccc(Cl)cc3)c3nccs3)cc2n1CCc1cccc(Cl)c1 (stereo not shown) [Example 424],> 10000,2320,–,–
CCOC(=O)c1nc2ccc(C(c3ccc(Cl)cc3)c3nccs3)cc2n1-c1cccc(Cl)c1 (stereo not shown) [Example 429],> 10000,437,–,–
CCCc1nc2ccc(C(c3ccc(Cl)cc3)c3nccs3)cc2n1-c1cccc(Cl)c1 (stereo not shown) [Example 431],> 10000,111,–,–
Clc1ccc(C(c2ccc3nc(C4CC4)n(-c4cccc(Cl)c4)c3c2)c2nccs2)cc1 (stereo not shown) [Example 432],> 10000,64.3,–,–
CC(C)Cc1nc2ccc(C(c3ccc(Cl)cc3)c3nccs3)cc2n1-c1cccc(Cl)c1 (stereo not shown) [Example 433],> 10000,> 10000,–,–
CCc1nc2ccc(C(c3ccc(Cl)cc3)c3nccs3)cc2n1-c1cccc(Cl)c1 (stereo not shown) [Example 434],> 10000,22.7,–,–
Clc1ccc(C(c2ccc3ncn(-c4cccc(Cl)c4)c3c2)c2nccs2)cc1 (stereo not shown) [Example 435],> 10000,> 10000,–,–
Cc1nc2ccc(C(c3ccc(Cl)cc3)c3nccs3)cc2n1-c1cccc(Cl)c1 (stereo not shown) [Example 436],> 10000,473,–,–
Cc1nc2ccc(C(c3ccc(Cl)cc3)c3nccs3)cc2n1CCc1cccc(Cl)c1 (stereo not shown) [Example 437],> 10000,192,–,–
Clc1ccc(C(c2ccc3ncn(CCc4cccc(Cl)c4)c3c2)c2nccs2)cc1 (stereo not shown) [Example 438],> 10000,315,–,–

SMILES,EC50 [1] [nM],EC50 [2] [nM],"IC50 ([1]; second line, the sentence announces activity against CB-1 and CB-2, read-out: CB-1 receptor: IC50 (second line of the list)) [nM]","IC50 ([2]; first line of the list, HEK-293 cells, cAMP, 250 nM Forskolin) [nM]"
CCOC(=O)N1CCC(n2c(N(C)C)nc3ccc(C(c4ccc(Cl)cc4)c4nccs4)cc32)CC1 (stereo not shown) [Example 439],> 10000,> 10000,–,–
CCOC(=O)N1CCC(n2c(N)nc3ccc(C(c4ccc(Cl)cc4)c4nccs4)cc32)CC1 (stereo not shown) [Example 440],> 10000,999,–,–
CCOC(=O)N1CCC(n2c(-c3ccc(Cl)cc3)nc3ccc(C(c4ccc(Cl)cc4)c4nccs4)cc32)CC1 (stereo not shown) [Example 441],> 10000,2090,–,–
Clc1ccc(-c2nc3ccc(C(c4ccc(Cl)cc4)c4nccs4)cc3n2C2CCCCC2)cc1 (stereo not shown) [Example 442],> 10000,3400,–,–
CCOC(=O)N1CCC(n2c(-c3ccc(Cl)cc3Cl)nc3ccc(C(c4ccc(Cl)cc4)c4nccs4)cc32)CC1 (stereo not shown) [Example 443],4950,1430,–,–
Clc1ccc(C(c2ccc3nc(-c4ccc(Cl)cc4Cl)n(C4CCCCC4)c3c2)c2nccs2)cc1 (stereo not shown) [Example 444],> 10000,535,–,–
CCOC(=O)N1CCC(n2c(C)nc3ccc(C(c4ccc(Cl)cc4)c4nccs4)cc32)CC1 (stereo not shown) [Example 445],> 10000,947,–,–
CCOC(=O)N1CCC(n2cnc3ccc(C(c4ccc(Cl)cc4)c4nccs4)cc32)CC1 (stereo not shown) [Example 448],> 10000,100,–,–
CC(C)(C)c1csc(C(c2ccc(Cl)cc2)c2ccc3ncn(Cc4ccc(Cl)cc4)c3c2)n1 (stereo not shown) [Example 449],> 10000,> 10000,–,–
CCc1csc(C(c2ccc(Cl)cc2)c2ccc3nc(C)n(Cc4ccc(Cl)cc4)c3c2)n1 (stereo not shown) [Example 452],> 6700,813,–,–
Cc1nc2ccc(C(c3ccc(Cl)cc3)c3nc(C(F)(F)F)cs3)cc2n1Cc1ccc(Cl)cc1 (stereo not shown) [Example 455],> 7400,2410,–,–
CCc1csc(C(c2ccc(Cl)cc2)c2ccc3nc(-c4ccc(Cl)cc4)n(Cc4ccc(Cl)cc4)c3c2)n1 (stereo not shown) [Example 456],> 9200,> 10000,–,–
CCc1csc(C(c2ccc(Cl)cc2)c2ccc3ncn(Cc4ccc(Cl)cc4)c3c2)n1 (stereo not shown) [Example 460],> 10000,> 10000,–,–
FC(F)(F)c1csc(C(c2ccc(Cl)cc2)c2ccc3ncn(Cc4ccc(Cl)cc4)c3c2)n1 (stereo not shown) [Example 462],> 6600,> 10000,–,–
Cc1nc2ccc(C(c3ccc(Cl)cc3)c3nccs3)cc2n1Cc1ccc(Cl)cc1 (stereo not shown) [Example 463],> 7600,164,–,–
Clc1ccc(Cn2c(-c3ccc(Cl)cc3)nc3ccc(C(c4ccc(Cl)cc4)c4nccs4)cc32)cc1 (stereo not shown) [Example 464],> 7200,212,–,–
Clc1ccc(Cn2cnc3ccc(C(c4ccc(Cl)cc4)c4nccs4)cc32)cc1 (stereo not shown) [Example 466],1430,> 8700,–,–
"O=S(=O)(c1cccc(NCCOCCOCc2ccccc2)c1)N1CCC(n2c(C3CC3)nc3ccc(C(c4ccc(Cl)cc4)c4ccc(Cl)cc4)cc32)CC1 [compound of formula (II), N-(2-(2-(benzyloxy)ethoxy)ethyl)-3-((4-(6-(bis(4-chlorophenyl)methyl)-2-cyclopropyl-1H-benzo[d]imidazol-1-yl)piperidin-1-yl)sulfonyl)aniline]",–,–,> 10000,13.5
